Test [1] relates to L100 mRNA. Briefly: kainate-induced seizures, in situ hybridization. Type of test: in vivo, rat. The following applies: six hours following kainate injection. The method, then:
For in situ hybridization, Dig-labeled cRNA probes were used as described elsewhere (Kuner et al., Science 283:5398 (1999)). […] Specifically, L100 mRNA expression was induced 17.2 fold by the multiple MECS treatment as determined from Northern blot data using total RNA from rat hippocampus (Table I).
(§1) Kainate-induced seizures is a model used to study epilepsy. Briefly, 300-350 g male Sprague-Dawley rats were intrapertoneally injected with either 10 mg/kg body weight of kainate or PBS. RNA samples from the hippocampus, cortex, and cerebellum were prepared from treated rats at 1.5, 6, and 24 hours post-injection. This RNA then was used to measure mRNA expression by Northern blot and RT-PCR analysis. Control mRNA measurements included c-fos, GAPDH, NO-38, and ATF-4 for the Northern blot analysis, and Hsp70, c-jun, Zif268, c-fos, Clathrin, and β-actin for the RT-PCR analysis. A Phosphoimager FLA2000 (Fuji) was used to analyze the data, which was expressed as the Integral PSL—background PSL (1D evaluation with Aida version 2.0).

In test [2] the test system is R286 mRNA. Description: kainate-induced seizures, in situ hybridization. Format: in vivo, rat. The method, then:
(§2) For in situ hybridization, Dig-labeled cRNA probes were used as described elsewhere (Kuner et al., Science 283:5398 (1999)). Specifically, R286 mRNA expression was the highest in the cortex and hippocampus while being moderately high in the cerebellar granule cells, brainstem nuclei, several lateral and medial thalamic nuclei, olfactory bulb, and striatum. […] Briefly, a probe from the 3′ untranslated region of R286 was used to hybridize a Northern blot containing 2 μg polyA^+ RNA from hippocampus from brains of untreated rats as well as rats receiving the multiple MECS treatment. After one day of exposure using the phosphoimager FLA2000 (Fuji), an upregulation of R286 mRNA was detected in the hippocampus (3.72 fold induction) collected four hours after the last MECS treatment. An additional Northern blot analysis using 10 μg total RNA from hippocampus from untreated rats and rats receiving the multiple MECS treatment was performed.
(§3) In addition, rats that developed seizures following intraperitoneal injection of kainate or PTZ were analyzed for the expression of R286 mRNA in addition to the mRNA of other LEG clones (Tables III and V).

Test [3] relates to A013 mRNA. Description: kainate-induced seizures, mRNA expression by Northern blot and RT-PCR. Format: in vivo, rat. Particulars: hippocampus, 1.5 hour, vs PBS. The method, then: as §1
For test [4], the system named is L100 mRNA. The test is described as above. The following applies: for L100 mRNA expression normalized to GADPH expression: Integral PSL - background PSL; for Fold increase in L100 mRNA expression upon kainate treatment: vs PBS. Format: in vivo, rat. The method, then:
as §1

The subject of test [5] is L094 mRNA. The test is described as above. Particulars: hippocampus, 1.5 hour, vs PBS. Type of test: in vivo, rat. The method, then:
as §1

For test [6], the system named is R113 mRNA. Described as above. Format: in vivo, rat. Particulars: hippocampus, 1.5 hour, vs PBS. The method, then:
as §1

Test [7] concerns L119 mRNA. The test is described as above. Type of test: in vivo, rat. Particulars: for L119 mRNA expression normalized to GADPH expression: Integral PSL - background PSL; for Fold increase in L119 mRNA expression upon kainate treatment: vs PBS. The method, then: as §1
The subject of test [8] is L100 mRNA. Description: PTZ-induced seizures, mRNA expression by Northern blot. The following applies: for Fold increase in L100 mRNA expression upon PTZ treatment: vs PBS; for L100 mRNA expression normalized to GADPH expression: Integral PSL - background PSL. Format: in vivo, rat. The method, then:
(§4) PTZ-induced seizures is a model used to study epilepsy and ischemia. Briefly, 300-350 g male Sprague-Dawley rats were intrapertoneally injected with either 50 mg/kg body weight of PTZ or PBS. Total RNA samples from the hippocampus, cortex, and cerebellum were prepared from treated rats at 20 minutes, 6 hours, and 24 hours post-injection. This RNA then was used to measure mRNA expression by Northern blot analysis. Control mRNA measurements included c-fos and GAPDH. A Phosphoimager FLA2000 (Fuji) was used to analyze the data, which was expressed as the Integral PSL—background PSL (1D evaluation with Aida version 2.0).

Test [9] concerns R113 mRNA. Described as above. Particulars: hippocampus, 6 hour, vs PBS. Format: in vivo, rat. The method, then: as §4
The subject of test [10] is L119 mRNA. The test is described as above. Type of test: in vivo, rat. The following applies: for Fold increase in L119 mRNA expression upon PTZ treatment: 20 min, vs PBS; for L119 mRNA expression normalized to GADPH expression: 20 min after PTZ 50 mg/kg i.p., Integral PSL - background PSL. The method, then:
as §4

Test [11] relates to R286 mRNA. Description: PTZ-induced seizures, in situ hybridization. Type of test: in vivo, rat. The method, then:
as §2, §3

Test [12] concerns R286 mRNA. Briefly: PTZ-induced seizures, mRNA expression by Northern blot. Type of test: in vivo, rat. The following applies: hippocampus, 6 hour, vs PBS. The method, then: as §4, §3
The subject of test [13] is L100 mRNA. Description: 3-NP ischemia model, Northern blot of total brain RNA. Format: in vivo, rat. The following applies: 3-NP 20 mg/kg i.p., three hours post-injection, total brain RNA without cerebellum; PSL - background; untreated 30.95. The method, then:
(§5) In another study, the expression pattern of L100 and L119 was determined using two models for ischemia. Briefly, neurons degenerate in brain and spinal cord after acute insults (e.g., stroke, cardiac arrest, and trauma) and during progressive, adult-onset diseases (e.g., amyotrophic lateral sclerosis, and Alzheimer's disease). Impaired energy metabolism plays an important role in neuronal cell death after brain ischemia, and apoptosis has been implicated in cell death induced by metabolic impairment. The irreversible inhibitor of succinate dehydrogenase in the mitochondria, 3-nitroproplonic acid (3-NP), inhibits oxidative phosphorylation and causes intracellular hypoxia. Thus, one model used to study ischemia involves intrastriatal injections of 3-NP, which is known to produce selective cell death similar to that observed in transient ischemia and Huntington's disease (McLaughlin et al., J. Neurochem 70:2406-2415 (1998)). The other model is a global ischemic paradigm that involves a 15 minute insult by complete occlusion of the carotis.
(§6) In the 3-NP study, 220-300 g Wistar rats were intraperitoneally injected with 20 mg/kg body weight. Three hours post-injections, the brain was removed and total RNA prepared. In the global ischemia study, 220-300 g Wistar rats were received a 15 minute insult (bilateral occlusion of the Carotis/arterial pressure=35 mm Hg). One hour later, the rats received a reperfusion followed by immediate brain dissection and total RNA preparation. Untreated rats were used as controls for each study. Ten (10) μg of total rat brain RNA (without cerebellum) was loaded per lane and blotted. Probes were prepared from the 3′ untranslated regions of L100 and L119. The Northern blot data was collected using a Phosphoimager (FLA2000 Fuji, Tina software) and expressed as PSL—background.

The test system of test [14] is GAPDH mRNA. The description is as above. Format: in vivo, rat. The following applies: 3-NP 20 mg/kg i.p., three hours post-injection, total brain RNA without cerebellum; PSL - background; untreated 487.02. The method, then:
as §5, §6

In test [15] the test system is L119 mRNA. The test is described as above. Format: in vivo, rat. The following applies: 3-NP 20 mg/kg i.p., three hours post-injection, total brain RNA without cerebellum; PSL - background; untreated 55.48. The method, then: as §5, §6
Test [16] has as its system c-fos mRNA. Described as above. Type of test: in vivo, rat. Particulars: 3-NP 20 mg/kg i.p., three hours post-injection, total brain RNA without cerebellum; PSL - background; untreated 18.1.
Test [17] deals with R010 expression in PC12 cells. Briefly: NGF treatment of PC12 cells, R010 expression. Type of test: cell-based.
The mark [18] stands for this setting: cortex, 6 hour after kainate 10 mg/kg i.p.
Setting [19] is: cortex, 24 hour after kainate 10 mg/kg i.p.
Setting [20] is: hippocampus, 1.5 hour after kainate 10 mg/kg i.p.
Setting [21] is: hippocampus, 6 hour after kainate 10 mg/kg i.p.
[22] abbreviates: hippocampus, 24 hour after kainate 10 mg/kg i.p.

The source of these data is US6699660B2, “Immediate early genes and methods of use therefor” (The Johns Hopkins University School of Medicine, priority 1998, dated 2004).

Take `C=C(C)[C@H]1CN[C@H](C(=O)O)[C@H]1CC(=O)O` [kainate]: the “L100 mRNA regulation by in situ hybridization” value was “strong upregulation” in [1] (dentate gyrus, CA3 and CA4 of hippocampus, entorrhinal cortex, cingulum, fimbria); “Moderate upregulation” in [1] (thalamic nuclei, temporal, parietal, frontal, medial orbital and cingulate cortex, cerebellar granule cells). Also, the “R286 mRNA expression by in situ hybridization” value in [2] (1.5 hours post-kainate injection) is reported as “no upregulation”; in test [2] (6 hours post-kainate injection, hippocampal pyramidal cell layer, cortex, thalamus, cerebellar Purkinje cell layer), “mildly upregulated”. Further, in [3], the “Fold increase in A013 mRNA expression upon kainate treatment” value was 9.8 fold. Also, the “L100 mRNA expression normalized to GADPH expression” value worked out at 290 in test [4] (setting [18]); 131 in test [4] (setting [19]); 85251 in test [4] (setting [20]); 15444 in [4] (setting [21]); 16551 in test [4] (setting [22]). In addition, the “Fold increase in L100 mRNA expression upon kainate treatment” value in test [4] (cortex, 6 hour) came to 3.58 fold; in test [4] (cortex, 24 hour), 1.52 fold; in test [4] (hippocampus, 1.5 hour), 18.44 fold; in test [4] (hippocampus, 6 hour) it was 1.97 fold; in test [4] (hippocampus, 24 hour) it was 4.20 fold. In addition, the “expression of L100 mRNA when acute seizures were induced by kainate treatment” value in [4] (kainate 10 mg/kg i.p.) is “strongly upregulated”. Further, the “Fold increase in L094 mRNA expression upon kainate treatment” value in [5] came to 3.6 fold. In addition, in [6], the “Fold increase in R113 mRNA expression upon kainate treatment” value came to 2.0 fold. Moreover, the “L119 mRNA expression normalized to GADPH expression” value is 1262 in test [7] (setting [18]); 505 in [7] (setting [19]); 69982 in test [7] (setting [20]); 11519 in test [7] (setting [21]); 12944 in [7] (setting [22]). For the same molecule, the “Fold increase in L119 mRNA expression upon kainate treatment” value in [7] (hippocampus, 1.5 hour) came out at 24.85 fold; in test [7] (hippocampus, 6 hour), 2.51 fold; in test [7] (hippocampus, 24 hour), 4.64 fold.

Regarding `C1CCc2nnnn2CC1` [PTZ, pentylenetetrazole], the “expression of L100 mRNA when acute seizures were induced by PTZ treatment” value in [8] (PTZ 50 mg/kg i.p.) is “strongly upregulated”. In addition, the “Fold increase in L100 mRNA expression upon PTZ treatment” value in test [8] (cortex, 20 min) is reported as 2.84 fold; in [8] (cortex, 6 hour), 3.22 fold; in test [8] (cortex, 24 hour) it was 1.55 fold; in test [8] (hippocampus, 20 min), 3.1 fold; in test [8] (hippocampus, 6 hour), 2.33 fold; in [8] (hippocampus, 24 hour), 1.97 fold. The “L100 mRNA expression normalized to GADPH expression” value in test [8] (cortex, 20 min after PTZ 50 mg/kg i.p.) was determined as 2719; in test [8] (cortex, 6 hour after PTZ 50 mg/kg i.p.), 3740; in test [8] (cortex, 24 hour after PTZ 50 mg/kg i.p.), 1825; in [8] (hippocampus, 20 min after PTZ 50 mg/kg i.p.) it was 1637; in test [8] (hippocampus, 6 hour after PTZ 50 mg/kg i.p.), 1992; in test [8] (hippocampus, 24 hour after PTZ 50 mg/kg i.p.), 1903. Moreover, the “Fold increase in R113 mRNA expression upon PTZ treatment” value in test [9] was found to be 2.0 fold. Besides, the “Fold increase in L119 mRNA expression upon PTZ treatment” value in test [10] (cortex) is 2.78 fold; in [10] (hippocampus), 2.82 fold. Further, the “L119 mRNA expression normalized to GADPH expression” value in test [10] (cortex) was found to be 1605; in [10] (hippocampus), 965. In addition, the “R286 mRNA expression by in situ hybridization” value in test [11] (20 minutes post-PTZ injection) was “no upregulation”; in [11] (6 hours post-PZT injection, hippocampal pyramidal cell layer, cortex, thalamus, cerebellar Purkinje cell layer), “mildly upregulated”. In addition, the “Fold increase in R286 mRNA expression upon PTZ treatment” value in test [12] was 2.6 fold.

With `O=C(O)CC[N+](=O)[O-]` [3-NP, 3-nitroproplonic acid], in [13], the “L100 mRNA expression after 3-NP treatment” value is listed as 43.82. Also, in [14], the “GAPDH mRNA expression after 3-NP treatment” value is 587.51. Moreover, in test [15], the “L119 mRNA expression after 3-NP treatment” value is listed as 41.94. The “c-fos mRNA expression after 3-NP treatment” value in test [16] came to 26.64.

NGF: NGF used to treat PC12 cells: the “R010 expression in vitro” value in test [17] is “rapidly induced”.
